Test results from article PMC8746705, “Comparison of Experimental Strategies to Study L-Type Amino Acid Transporter 1 (LAT1) Utilization by Ligands” (Molecules, 2021).

Experiments:
Transport Type 2 = test: Concentration-dependent cellular uptake into BV2 cells, Eadie–Hofstee analysis, Transport Type 2; assay type: cell-based, mouse; details: 1–200 µM, 30 min, mean ± SD, n = 3
Protocol: (§1) For the concentration-dependent cellular uptake experiments, the BV2 cells on 24-well plates were incubated with studied compounds (1–200 μM) in pre-warmed HBSS buffer (250 μL) at 37 °C for 30 min. The experiment was then carried out as described for the time-dependent uptake above and the concentration of studied compounds in the cell lysate was analyzed by the LC-MS/MS methods described above and the results were normalized to the total protein concentration. The distinct transport mechanisms were separated from the Michaelis-Menten kinetics by using Eadie–Hofstee plot.
(§2) The studied compounds (1–15) were analyzed by using Agilent 1200 Series Rapid Resolution LC System together with an Agilent 6410 Triple Quadrupole Mass Spectrometer equipped with an electrospray ionization source (Agilent Technologies, Santa Clara, CA, USA). The chromatographic separations of analytes were achieved by using a reversed-phase Zobrax SB-C18 column (50 mm × 2.1 mm, 1.8 μm; Agilent Technologies, Santa Clara, CA, USA) by eluting the samples with 0.1% formic acid in water (A) and 0.1% formic in ACN (B). Labetalol and diclofenac were used as internal standards (ISTD) for the prodrugs and parent drugs, respectively. The transitions used for the quantification at the positive ion mode and chromatographic conditions of each compound and their parent drugs are listed in Table S1. The methods of compounds 1–11 have been reported earlier, while the methods of compounds 12–15 are reported herein for the first time.

LAT1 [1] = target: T1, LAT1 (Mus musculus, UniProt Q9Z127); test: Concentration-dependent cellular uptake into BV2 cells, Eadie–Hofstee analysis, Transport Type 1 (LAT1); assay type: cell-based; details: 1–200 µM, 30 min, BV2; Eadie–Hofstee; mean ± SD, n = 3
Protocol: as §1, §2

LAT1 [2] = target: T1, LAT1; test: Inhibition type of [14C]-L-Leu uptake (Hanes-Woolf plots) in BV2 cells; assay type: cell-based; details: for Vmax of [14C]-L-Leu uptake: 0.010–0.20 µM [14C]-L-Leu in the presence of the compound at its IC50, mean ± SD, n = 3–4; for Vmax of [14C]-L-Leu uptake / Inhibition Type: BV2; for Inhibition Type: of [14C]-L-Leu uptake, concluded from Km and Vmax
Protocol: (§3) After removal of the culture medium, the BV2 cells were carefully washed with pre-warmed HBSS (Hank’s balanced salt solution) containing 125.0 mM choline chloride, 4.8 mM KCl, 1.2 mM MgSO4, 1.2 mM KH2PO4, 1.3 mM CaCl2, 5.6 mM glucose, and 25.0 mM HEPES (pH 7.4 adjusted with 1 M NaOH). Pre-incubation was done with 500 μL of pre-warmed HBSS at 37 °C for 10 min before adding substrates (250 μL in HBSS) for the uptake experiments.
To evaluate the inhibition type of studied compounds, the BV2 cells were incubated with 0.010–0.20 μM [^14C]-L-leucine together with the studied compound. The concentration of compounds was selected according to the compound-specific IC50 values. The experiment was then carried out as described for the [^14C]-L-leucine uptake above and the radioactivity was measured by liquid scintillation counting. Hanes-Woolf plots were created by setting the ratio of initial substrate concentration to the reaction velocity ([S]/v) against [^14C]-L-leucine concentration (µM). The linear regression was used to calculate Km value (negative value of x-intercept) and Vmax value (1/slope) for [^14C]-L-leucine.

LAT1 [3] = target: T1, LAT1; test: Cis-inhibition of radiolabelled LAT1-probe substrate uptake into BV2 cells; assay type: cell-based; details: for IC50: 5 min, mean ± SD
Protocol: as §3
The ability of compounds 1–15 to inhibit the uptake of a known LAT1 substrate [^14C]-L-leucine was then evaluated by incubating the cells at 37 °C for 5 min in uptake buffer pH 7.4 (250 μL) containing 0.2 µCi/mL of [^14C]-L-leucine, or 2 µCi/mL of [^3H]-L-methionine, [^3H]-L-tryptophan or [^3H]-L-kynurenine (PerkinElmer, Waltham, MA, USA) and 0.1–1000 μM of the studied compound (or HBSS as blank). After incubation, the uptake was stopped by adding 250 µL of ice-cold HBSS, and the cells were washed two times with ice-cold HBSS. The cells were then lysed with 500 μL of NaOH (0.1 M) for 60 min and the lysate was mixed with 3.5 mL of Emulsifier safe cocktail (Ultima Gold, PerkinElmer, Waltham, MA, USA). The radioactivity in the cells was measured by liquid scintillation counting (MicroBeta^2 counter, PerkinElmer Waltham, MA, USA). Half of the maximum inhibitory concentration (IC50) values were calculated by nonlinear regression analysis (fitting the curve to log (concentration) vs. remaining normalized […]).

[4] = Time-dependent cellular uptake of compounds into BV2 cells (LC-MS/MS); assay type: cell-based, mouse; details: mouse, BV2 microglia cells, 100 µM compound, 1–60 min, mean ± SD, n = 3, read-out: T½ of cellular uptake
Protocol: (§4) For the time-dependent cellular uptake experiments, the BV2 cells on 24-well plates were incubated with studied compounds (100 μM) in a pre-warmed HBSS buffer (250 μL) at 37 °C for 1–60 min. Subsequently, the cells were washed three times with an ice-cold HBSS and lysed with 250 μL of NaOH (0.1 M) for 60 min. The lysates were diluted with acetonitrile (ACN) including the selected internal standard (diclofenac to all compounds) with a ratio of 1:3 and centrifuged at 10,000× g for 10 min. The samples were analyzed by the liquid chromatography-tandem mass spectrometric (LC-MS/MS) methods as described below. The concentrations of each compound in cell lysates were calculated from the standard curve that was prepared by spiking known amounts of compounds to ACN including the selected internal standard and then normalized with protein concentration. The protein concentrations on each plate were determined as a mean of three samples by Bio-Rad Protein Assay, based on the Bradford dye-binding method, using bovine serum albumin (BSA) as a standard protein and measuring the absorbance (595 nm) by multiplate reader (EnVision, Perkin Elmer, Inc., Waltham, MA, USA).
as §2

[5] = test system: immortalized mouse microglia (BV2); test: as above; assay type: cell-based
Protocol: as §4, §2

LAT1 [6] = target: T1, LAT1; test: Cellular uptake of L-leucine after pre-incubation of BV2 cells with the compounds; assay type: cell-based; details: 100 µM (L-glutamine 2 mM) pre-incubated 10 min or 3 h, L-leucine 1–400 µM, 5 min
Protocol: The ability of compounds 1–15 to affect the uptake of a known LAT1 substrate L-leucine was evaluated by pre-incubating the BV2 cells at 37 °C for 10 min or 3 h with uptake buffer pH 7.4 (250 μL) containing 100 µM of compounds 1–15 or thyroxin (T4), or known nuclear receptor inducible compounds, phenobarbital (constitutive androstane receptor, CAR), and dexamethasone (pregnane X receptor, PXR) as controls. […] After incubation, the reaction was stopped by adding 250 µL of ice-cold HBSS, and the cells were washed two times with ice-cold HBSS. The cells were then lysed with 500 μL of 0.1 M NaOH (60 min) and the lysate was mixed with 3.5 mL of Emulsifier safe cocktail (Ultima Gold, PerkinElmer, Waltham, MA, USA). The radioactivity in the cells was measured by liquid scintillation counting (MicroBeta^2 counter, PerkinElmer Waltham, MA, USA). The results were multiplied by the amount of un-labeled proportion of L-leucine in each sample.

LAT1 [7] = target: T1, LAT1; test: Cellular uptake of compounds in the presence of LAT1-inhibitor (KMH-233); assay type: cell-based; details: 100 µM compound, 100 µM KMH-233, 30 min, BV2
Protocol: The competitive uptake in the presence of LAT1-inhibitor (KMH-233) was carried out as described above with HBSS buffer solution containing 100 µM of the studied compounds. The cells were pre-incubated with 100 µM LAT1-inhibitor for 10 min and the incubation mixture was removed before adding the studied compound and LAT1-inhibitor on the cells. The competitive uptake (30 min) with the inhibitor was then carried out as the normal uptake described above. The amounts of studied compounds were analyzed by the LC-MS method and calculated from the spiked standard curve and normalized with the protein concentrations.

LAT1 [8] = test: Quantitative expression of LAT1 on the BV2 plasma membrane (LC-MS proteomics); assay type: cell-based, mouse; details: BV2 cells incubated 24 h; normalized to Na+/K+ATPase; compared to untreated control
Protocol: The protein expression levels of LAT1, in the plasma membrane fractions of BV2 cells were quantified using multiplexed MRM analysis according to the protocol described by Uchida et al.. First, the crude membrane fractions were isolated from three distinct sets of cell culture plates using Membrane Protein Extraction Kit (BioVision Incorporated, Milpitas, CA, USA) according to the manufacturer’s instructions. The protein content for each fraction was measured by Bio-Rad Protein Assay, based on the Bradford dye-binding method (EnVision, Perkin Elmer, Inc., Waltham, MA, USA). A total amount of 50 µg protein from each fraction was solubilized/denatured in 7 M guanidine hydrochloride, 0.5 M Tris-HCl and 10 mM EDTA-Na. The proteins were then reduced by dithiothreitol (1:50, w/w) and S-carboxymethylated by iodoacetamide (1:20, w/w). The alkylated proteins were precipitated by methanol/chloroform/water (4:1:3) and centrifuged at 18,000× g for 5 min at 4 °C. The pellet was resuspended in 6 M urea and mixed for 10 min at room temperature before the dilution with 0.1 M Tris-HCl (pH 8.5) to a final concentration of 1.2 M urea, and dissolved completely by intermittent sonication (Branson 3510, Danbury, CT, USA). The dissolved proteins were first digested with LysC (1/100, w/w) and 0.05% ProteaseMax (Promega Biotech AB, Nacka, Sweden) for 3 h at room temperature. Then, the samples were spiked with 10 µL (30 fmol) of the labelled peptides for absolute quantification (JPT Peptide Technologies GmbH, Berlin, Germany) (Table S2). The samples were incubated with (1/100, w/w) TPCK-Trypsin (Promega Biotech AB, Nacka, Sweden) for 18 h at 37 °C. The tryptic digestion was then quenched by adding 40 µL of 5% formic acid. The samples were then centrifuged at 18,000× g for 5 min at 4 °C, and the supernatants were transferred to vials for analysis.
The digested peptides were analyzed using an ultra-performance liquid chromatography system coupled with a triple quadrupole mass spectrometer with a heated electrospray ionization source in the positive mode (UPLC 1290 and MSD 6495, Agilent Technologies, Santa Clara, CA, USA). A total amount of 20 µL of the digested peptides (10 µg) was separated using AdvanceBio Peptide Map 2.1 × 250 mm, 2.7 μm column (Agilent Technologies, Santa Clara, CA, USA) and LC eluents of 0.1% formic acid in water (A) and acetonitrile (B). The peptides were eluted following a constant flow rate of 0.3 mL/min and a gradient of 2–7% B for 2 min, followed by 7–30% B for 48 min, 30–45% B for 3 min, and 45–80% B for 2.5 min before re-equilibrating the column again for 4.5 min. LAT1 was quantified based on the ratio between the light and heavy standard peptides, as described previously (Table S2). Data was acquired using Agilent MassHunter Workstation Acquisition (Agilent Technologies, Data Acquisition for Triple Quadrupole, version B.03.01) and processed by using Skyline software (version 20.1). The results were normalized to a housekeeping protein Na+/K+ATPase and expressed as fmol/µg of the total amount of protein in the samples.

[9] = probe [3H]-L-Kynu, n = 3–4, read-out: IC50 of [3H]-L-Kynu uptake
[10] = probe [3H]-L-Met, n = 3–4, read-out: IC50 of [3H]-L-Met uptake
[11] = probe [3H]-L-Trp, n = 3–4, read-out: IC50 of [3H]-L-Trp uptake
[12] = 100 µM compound, 1–60 min, mean ± SD, n = 3

T1 sequence (Q9Z127 whole entry): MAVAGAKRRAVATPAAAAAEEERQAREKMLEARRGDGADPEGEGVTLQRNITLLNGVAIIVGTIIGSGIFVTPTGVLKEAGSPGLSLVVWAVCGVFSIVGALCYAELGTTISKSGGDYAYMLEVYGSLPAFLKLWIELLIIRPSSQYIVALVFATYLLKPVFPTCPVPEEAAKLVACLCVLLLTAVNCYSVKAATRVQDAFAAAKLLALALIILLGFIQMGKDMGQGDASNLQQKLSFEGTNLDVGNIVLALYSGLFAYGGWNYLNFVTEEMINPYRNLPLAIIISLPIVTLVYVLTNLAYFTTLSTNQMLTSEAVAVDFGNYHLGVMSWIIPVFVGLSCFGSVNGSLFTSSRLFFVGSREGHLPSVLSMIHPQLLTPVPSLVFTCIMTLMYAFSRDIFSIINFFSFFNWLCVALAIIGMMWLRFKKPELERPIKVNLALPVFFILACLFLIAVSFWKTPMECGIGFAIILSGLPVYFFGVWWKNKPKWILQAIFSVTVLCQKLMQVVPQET
T1 sequence (P10852 whole entry partner): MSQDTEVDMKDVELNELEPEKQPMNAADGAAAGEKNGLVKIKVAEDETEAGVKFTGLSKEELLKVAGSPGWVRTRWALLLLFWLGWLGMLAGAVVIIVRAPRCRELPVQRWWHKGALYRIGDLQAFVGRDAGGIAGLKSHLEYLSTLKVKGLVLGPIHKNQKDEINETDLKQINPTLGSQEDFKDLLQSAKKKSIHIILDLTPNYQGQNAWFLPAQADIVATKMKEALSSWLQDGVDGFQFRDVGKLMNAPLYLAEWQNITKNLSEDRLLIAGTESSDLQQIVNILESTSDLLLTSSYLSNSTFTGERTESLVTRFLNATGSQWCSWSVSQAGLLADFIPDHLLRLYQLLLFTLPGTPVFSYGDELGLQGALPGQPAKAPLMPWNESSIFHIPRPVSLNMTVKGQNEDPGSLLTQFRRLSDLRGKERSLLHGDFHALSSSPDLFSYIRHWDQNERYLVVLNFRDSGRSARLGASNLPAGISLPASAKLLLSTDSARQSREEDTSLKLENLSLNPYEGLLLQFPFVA

Structure (SMILES)	Km (LAT1 [1]) [µM]	Transport Type 1 (LAT1) Vmax (LAT1 [1]) [pmol/mg/min]	Vmax of [14C]-L-Leu uptake (LAT1 [2]) [nmol/min/mg]	Inhibition Type (LAT1 [2])	IC50 (LAT1 [3]; [9]) [µM]	IC50 (LAT1 [3]; [10]) [µM]	IC50 (LAT1 [3]; [11]) [µM]	half-life at 100 μM [4] [min]	Max. cellular uptake [5, 12]	Effect on cellular uptake of L-Leu after pre-incubation (LAT1 [6])	Cellular uptake in the presence of LAT1-inhibitor (LAT1 [7])	LAT1 expression on the plasma membrane (LAT1 [8])	also measured
CC(C(=O)Nc1ccc(CC(N)C(=O)O)cc1)c1cccc(C(=O)c2ccccc2)c1 (stereo not shown) [Compound 3]	1.9 ± 0.3	3.7 ± 0.5	2.851 ± 0.035	Non-competitive	11.9 ± 1.3	17.1 ± 1.9	39.2 ± 1.5	1.5 ± 0.67	1.96 ± 0.14 nmol/mg of protein	decreased the amount of L-Leu inside the cells	inhibited significantly	–	Km (Transport Type 2): 148 ± 41 µM; Transport Type 2 Vmax (Transport Type 2): 49 ± 9 pmol/mg/min; Inhibition of LAT1-probe substrate uptake / LAT1 affinity (LAT1 [3]; over all probe substrates): lower affinity and higher IC50 values; IC50 (LAT1 [3]; probe [14C]-L-Leu, n = 3–4, read-out: IC50 of [14C]-L-Leu uptake): 26 ± 1.1 µM
CC(C)Cc1ccc([C@H](C)C(=O)Nc2cccc(C[C@H](N)C(=O)O)c2)cc1 [Compound 10]	22 ± 6	205 ± 41	2.151 ± 0.066	Mixed type	7.7 ± 1.1	9.6 ± 1.6	43.4 ± 1.5	< 1	4.14 ± 0.31 nmol/mg of protein	–	only reductive trends were seen	–	IC50 (LAT1 [2]; Table 2, compound concentration used in the inhibition type study, corresponding to IC50 of [14C]-L-Leu uptake): 13 µM; T½ of cellular uptake [5, 12]: 0.87 ± 0.55 min; LAT1-substrate or LAT1-binder ([5]; concluded from time-dependent uptake, 100 µM): LAT1-binders rather than substrates
NC(=O)CC[C@H](N)C(=O)O [L-glutamine, reference compound]	–	–	–	–	–	–	–	–	–	decreased the amount of L-Leu inside the cells	–	–	–
C[C@@H]1C[C@H]2[C@@H]3CCC4=CC(=O)C=C[C@]4(C)[C@@]3(F)[C@@H](O)C[C@]2(C)[C@@]1(O)C(=O)CO [dexamethasone, reference compound]	–	–	–	–	–	–	–	–	–	–	–	did not have any effect on LAT1 expression	–
CCC1(c2ccccc2)C(=O)NC(=O)NC1=O [phenobarbital, reference compound]	–	–	–	–	–	–	–	–	–	–	–	did not have any effect on LAT1 expression	–
